Source: patent publication US20110033946A1, “DETECTION OF SHORT-CHAIN FATTY ACIDS IN BIOLOGICAL SAMPLES” (HEMAQUEST PHARMACEUTICALS, INC., priority 2009, published 2011)
Values joined by “and” are separate entries in the source; they are usually repeats but may differ in a detail not shown here. Identical values can stand only once. Like-named read-outs stand apart in the source and are kept apart here.

Assays:
[1] = assay type: physicochemical, human; settings: for Bench top stability, Mean concentration / Bench top stability, RE % (mean vs nominal): human, 22.5 h
Protocol: The following samples were also analyzed either in conjunction with one of the precision and accuracy runs or in one of the additional validation runs. Samples from six lots of control human plasma for specificity. Samples from six lots of control human plasma fortified with internal standard for specificity. Two concentration levels of unextracted QC-samples in triplicate (solvent standards) were analyzed for the evaluation of the recovery of sodium 2,2-dimethylbutyrate and DMV in human plasma. Two levels of QC samples (Low QC and High QC in triplicate) were subjected to three freeze/thaw cycles at approximately −70° C. prior to extraction to evaluate freeze/thaw stability. […] Triplicate low QC samples and triplicate high QC samples were stored for one month and three months in a freezer at approximately −70° C., and then extracted and analyzed to evaluate long term stability in human plasma. Two levels of extracted QC samples (Low QC and High QC) were re-analyzed after approximately 71 hours in the autosampler at room temperature to evaluate the extract autosampler stability. Two levels of extracted QC samples (Low QC and High QC) were re-analyzed after approximately 8 hours in the freezer at approximately −20° C. to evaluate the extract freeze stability. Three aliquots of a dilution QC sample diluted 10-fold. Triplicate dilutions of the old stock solution (stored at approximately 4° C.) and new stock solutions prepared at intervals of two weeks and one month. Statistical calculations in the report tables were calculated from unrounded concentration values taken directly from the raw data. The concentration values were rounded for display purposes.
(§1) Triplicate QC-Low and QC-High samples were extracted and analyzed after these storage conditions. The CV % values for the QC-Low and QC-High stability samples are 7.8% and 2.9%, respectively. To calculate the RE %, the measured mean concentration was compared to the nominal concentration. The RE % values for the QC-Low and QC-High stability samples are 11.8% and −3.4%, respectively.

[2] = Freeze/thaw stability in human urine; assay type: physicochemical; settings: stored at −70° C. and thawed, repeated twice, 0.3, 19 and 38 μg/ml
Protocol: (§2) The applicability of the testing methodology to analyze samples stored under different conditions was analyzed. First, to assess short-term stability of DMB in human urine, samples at 0.3, 19 and 38 μg/ml, 92.3% of DMB were maintained unextracted at room temperature and at bench-top light levels for six hours. […] Second, to assess freeze/thaw stability of DMB in human urine, samples at 0.3, 19 and 38 μg/ml, 92.3% of DMB were stored at −70° C. and thawed. This process was repeated twice and samples after each freezing were analyzed for DMB as described. For each concentration and each freezing/thawing sample, the % CV was no more than 15%.

[3] = Freeze/thaw cycle stability in rat plasma; assay type: physicochemical; settings: three freeze/thaw cycles at approximately −70° C.
Protocol: (§3) For the remaining validation tests, a calibration curve and triplicates QCs at the low, mid and high levels were analyzed with each sample set. The following samples were also analyzed either in conjunction with one of the precision and accuracy runs or in one of the additional validation runs: Samples from six lots of control rat plasma for specificity; Samples from six lots of control rat plasma fortified with internal standard for specificity; Two concentration levels of unextracted QC-samples in triplicate (solvent standards) were analyzed for the evaluation of the recovery of sodium 2,2-dimethylbutyrate and DMV in rat plasma; Two levels of QC samples (Low QC and High QC in triplicate) were subjected to three freeze/thaw cycles at approximately −70° C. prior to extraction to evaluate freeze/thaw stability; Two levels of QC samples (Low QC and High QC in triplicate) were placed on the bench top for approximately 17 hours prior to extraction for the evaluation of the bench top stability; Triplicate low QC samples and triplicate high QC samples were stored for one month and three months in a freezer at approximately −70° C., and then extracted and analyzed to evaluate long term stability in rat plasma; Three aliquots of a dilution QC sample diluted 10-fold.
The stability of sodium 2,2-dimethylbutyrate in rat plasma was evaluated at approximately −70° C. for three cycles using QC-Low and QC-High samples in triplicate. The freeze time was at least 12-24 hours, with a minimum thaw time of one hour. The CV % values for the QC-Low and QC-High stability samples are 13.3% and 4.6%, respectively. To calculate the RE %, the measured mean concentration was compared to the nominal concentration.

[4] = Short-term stability in human urine at room temperature; assay type: physicochemical; settings: unextracted, bench-top light, six hours, 0.3, 19 and 38 μg/ml
Protocol: as §2

[5] = assay type: physicochemical, dog; settings: for Bench top stability, Mean concentration / Bench top stability, RE % (mean vs nominal): dog, 17 h
Protocol: as §3, with “control dog” for “control rat”, “for specificity.” for “for specificity; Samples from six lots of control rat plasma fortified with internal standard for specificity;”, “in dog plasma.” for “in rat plasma;”, “freeze/thaw stability.” for “freeze/thaw stability;”, “top stability.” for “top stability;”
as §1, with “Bench top stability was evaluated at room temperature for approximately 17 hours. Triplicate” for “Triplicate”, “3.2%” for “7.8%”, “3.4%,” for “2.9%,”, “2.1%” for “11.8%”, “−10.7%,” for “−3.4%,”

Time stable on bench top ([1]; human plasma, ambient bench top storage): 22.5 h
Bench top stability, Mean concentration ([1]; 0.6 μg/mL): 0.671 µg/mL
Bench top stability, RE % (mean vs nominal) ([1]; 0.6 μg/mL): 11.8%
Bench top stability, Mean concentration ([1]; 40 μg/mL): 38.7 µg/mL
Bench top stability, RE % (mean vs nominal) ([1]; 40 μg/mL): −3.4%
% CV after freeze/thaw [2]: no more than 15%
Stability after freeze/thaw cycles [3]: stable
Freeze/thaw cycle stability, Mean concentration ([3]; QC-High, nominal 40.0 μg/mL): 41.2 µg/mL
Freeze/thaw cycle stability, RE % (mean vs nominal) ([3]; QC-High, nominal 40.0 μg/mL): 3.1%
Freeze/thaw cycle stability, concentration found (replicate) ([3]; QC-High, nominal 40.0 μg/mL): 41.7 µg/mL and 39.2 µg/mL and 42.9 µg/mL
Freeze/thaw cycle stability, Mean concentration ([3]; QC-Low, nominal 0.60 μg/mL): 0.575 µg/mL
Freeze/thaw cycle stability, RE % (mean vs nominal) ([3]; QC-Low, nominal 0.60 μg/mL): −4.1%
Short-term stability in human urine [4]: stable
Time stable on bench top ([5]; dog plasma, ambient bench top storage): approximately 17 hours
Bench top stability, Mean concentration ([5]; 0.6 μg/mL): 0.613 µg/mL
Bench top stability, RE % (mean vs nominal) ([5]; 0.6 μg/mL): 2.1%
Bench top stability, Mean concentration ([5]; 40 μg/mL): 35.7 µg/mL
Bench top stability, RE % (mean vs nominal) ([5]; 40 μg/mL): −10.7%
Structure (SMILES): CCC(C)(C)C(=O)[O-].[Na+] [Sodium 2,2-Dimethylbutyrate]
Freeze/thaw cycle stability, concentration found (replicate) ([3]; QC-Low, nominal 0.60 μg/mL): 0.491 µg/mL and 0.595 µg/mL and 0.640 µg/mL
